{"source": "paper PMC9000575", "about": "“Solution Equilibrium Studies on Salicylidene Aminoguanidine Schiff Base Metal Complexes: Impact of the Hybridization with L-Proline on Stability, Redox Activity and Cytotoxicity” (Molecules, 2022)", "format_in_all_cases": "physicochemical", "key": {"[1]": {"assay": "stability constants of Fe(III) complexes by pH-potentiometry", "details": "30% (v/v) DMSO/H2O; for pFe(III)* (−logΣ[Fe(III)i(OH)j]): calculated at pH 7.4, cFe = 1 μM, cligand = 10 μM", "experimental": "(§1) The pH-potentiometric measurements for the determination of the proton dissociation constants of the ligands and the overall stability constants of the metal complexes were carried out at 25.0 ± 0.1 °C in water or in 30% (v/v) DMSO/H2O as solvent and at an ionic strength of 0.10 M (KCl). The titrations were performed with carbonate-free KOH solution of known concentration (0.10 M). The concentrations of the base and the HCl were determined by pH-potentiometric titrations. An Orion 710A pH-meter equipped with a Metrohm combined electrode (type 6.0234.100), and a Metrohm 665 Dosimat burette were used for the titrations. […] The average water ionization constant pKw was 13.76 ± 0.05 (water) or 14.52 ± 0.05 (30% (v/v) DMSO/H2O). The pH-potentiometric titrations were performed in the pH range 2.0–12.5. The initial volume of the samples was 10.0 mL. The ligand concentration was 2 mM and metal ion-to-ligand ratios of 1:1–1:3 were used. The accepted fitting of the titration curves was always less than 0.01 mL. Argon was always passed over the solutions during the titrations. The exact concentration of the ligand stock solutions together with the proton dissociation constants were determined by pH-potentiometric titrations with the use of the computer program HYPERQUAD [44]. It was also utilized to establish the stoichiometry of the complexes and to calculate the stability constants (β(MpLqHr)). β(MpLqHr) is defined for the general equilibrium pM + qL + rH ⇋ MpLqHr as β(MpLqHr) = [MpLqHr]/[M]^p[L]^q[H]^r, where M denotes the metal ion and L the completely deprotonated ligand. In all calculations exclusively, titration data were used from experiments in which no precipitate was visible in the reaction mixture."}, "[2]": {"assay": "stability constants of Cu(II) complexes from deconvolution of EPR spectra", "details": "water, room temperature, I = 0.10 M (KCl)", "experimental": "All EPR spectra were recorded with a BRUKER EleXsys E500 spectrometer (microwave frequency 9.54 GHz, microwave power 13 mW, modulation amplitude 5 G, modulation frequency 100 kHz, Bruker BioSpin Corporation, Billerica, MA, USA) at 77 K for the Cu(II)—SISC complexes and at room temperature for the Cu(II)—Pro-SISC-Me species. EPR spectra were recorded at different pH values at two metal-to-ligand concentration ratios: 0.25 mM Cu(II) and 0.25 mM or 0.50 mM SISC in 30% DMSO/water solution, and 1.0 mM Pro-SISC-Me and 1.0 mM or 0.5 mM Cu(II) in water. The ionic strength was adjusted with KCl (I = 0.1 M). KOH solution was added to the stock solution to change the pH between pH = 2.5–12.5, which was measured with a Radiometer PHM240 pH/ion Meter equipped with a Metrohm 6.0234.100 glass electrode. The isotropic EPR spectra were recorded at room temperature in a circulating system, and a Heidolph Pumpdrive 5101 peristaltic pump was used to circulate the solution from the titration vessel through a capillary tube into the cavity of the instrument. For the anisotropic EPR spectra, a pH titration was performed outside of the cavity and at selected pH values, and 200 μL samples were transferred from the titration vessel into EPR tubes and the spectra were recorded in a Dewar containing liquid nitrogen.\nThe anisotropic EPR spectra were analyzed with the EPR program. […]"}, "[3]": {"assay": "stability constants of Fe(II) complexes by pH-potentiometry", "details": "30% (v/v) DMSO/H2O; for logβ [Fe(II)LH−1] / logβ [Fe(II)LH−2]− / logβ [Fe(II)L]+: 25 °C, I = 0.10 M (KCl), anaerobic; for pFe(II) (−log[Fe(II)]): calculated at pH 7.4, cFe = 1 μM, cligand = 10 μM", "experimental": "Complexation with Fe(II) was studied under strictly anaerobic conditions. […] Aside from the better solubility of the Pro-SISC-Me complexes, the two ligands behaved similarly and the difference between their Fe(II)-binding efficacy was minor.\nas §1"}}, "data": [{"smiles": "Cc1cc(C=NNC(=N)N)c(O)c(CN2CCCC2C(=O)O)c1", "note": "(stereo not drawn) [Pro-SISC-Me]", "values": [{"measurement": "logβ [Fe(III)L2H−1]", "setting": "[1]; 25 °C, I = 0.10 M (KCl)", "value": "18.40 ± 0.07"}, {"measurement": "logβ [Fe(III)L2H−2]−", "setting": "[1]; 25 °C, I = 0.10 M (KCl)", "value": "8.64 ± 0.08"}, {"measurement": "logβ [Fe(III)L2]+", "setting": "[1]; 25 °C, I = 0.10 M (KCl)", "value": "27.63 ± 0.05"}, {"measurement": "logβ [Fe(III)L]2+", "setting": "[1]; 25 °C, I = 0.10 M (KCl)", "value": "15.25 ± 0.04"}, {"measurement": "pFe(III)* (−logΣ[Fe(III)i(OH)j])", "setting": "[1]", "value": 10.0}, {"measurement": "logβ [CuLH−1]", "setting": "[2]", "value": 6.50}, {"measurement": "logβ [CuL]+", "setting": "[2]", "value": 14.78}, {"measurement": "logβ [Fe(II)LH−1]", "setting": "[3]", "value": "−1.08 ± 0.05"}, {"measurement": "logβ [Fe(II)LH−2]−", "setting": "[3]", "value": "<−11"}, {"measurement": "logβ [Fe(II)L]+", "setting": "[3]", "value": "6.83 ± 0.04"}, {"measurement": "pFe(II) (−log[Fe(II)])", "setting": "[3]", "value": 6.1}]}, {"smiles": "N=C(N)NN=Cc1ccccc1O", "note": "[SISC, 2-(2-hydroxybenzylidene)hydrazinecarboximidamide]", "values": [{"measurement": "logβ [Fe(III)L2]+", "setting": "[1]; 25 °C, I = 0.10 M (KCl)", "value": "27.46 ± 0.05"}, {"measurement": "logβ [Fe(III)L]2+", "setting": "[1]; 25 °C, I = 0.10 M (KCl)", "value": "14.96 ± 0.05"}, {"measurement": "pFe(III)* (−logΣ[Fe(III)i(OH)j])", "setting": "[1]", "value": 7.9}, {"measurement": "logβ [Fe(II)LH−1]", "setting": "[3]", "value": "−0.73 ± 0.07"}, {"measurement": "logβ [Fe(II)LH−2]−", "setting": "[3]", "value": "−8.94 ± 0.08"}, {"measurement": "logβ [Fe(II)L]+", "setting": "[3]", "value": "7.20 ± 0.06"}, {"measurement": "pFe(II) (−log[Fe(II)])", "setting": "[3]", "value": 6.0}]}]}
